Here are results for 24 compounds from PMC3362798 (Bioorganic & medicinal chemistry letters, 2012).

Read-outs that look alike come from different tables or passages of the source.

For series [1] the following is noted: cited from earlier work.
The subject of the next series is mice. Particulars: intracerebroventricular (icv) administration; cited from earlier work.
Another series has as its system rats. The settings on record: intracerebroventricular (icv) administration; cited from earlier work.
The test system of the next series is NPY Y2. The settings on record: NPY Y2 antagonist; cited from earlier work.
A further series deals with T1, NPY Y2 receptor (Homo sapiens, UniProt P49146).
T1 sequence (P49146 1-381): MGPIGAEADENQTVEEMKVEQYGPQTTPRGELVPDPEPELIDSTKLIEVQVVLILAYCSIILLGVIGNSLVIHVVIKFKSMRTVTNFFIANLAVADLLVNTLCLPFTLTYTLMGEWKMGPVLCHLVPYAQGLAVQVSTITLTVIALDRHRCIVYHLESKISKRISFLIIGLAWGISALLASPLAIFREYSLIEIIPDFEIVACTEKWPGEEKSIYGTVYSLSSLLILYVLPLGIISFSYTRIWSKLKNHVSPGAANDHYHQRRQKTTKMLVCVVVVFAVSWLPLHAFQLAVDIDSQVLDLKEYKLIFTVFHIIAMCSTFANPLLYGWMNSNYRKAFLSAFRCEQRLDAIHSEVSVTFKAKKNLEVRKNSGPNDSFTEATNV
Nature of the series: cAMP biosensor assay, NPY Y2 receptor antagonism. The settings on record: for fold increase in potency compared to SF-11: more potent than SF-11. It is filed as cell-based.

For series [2], the system named is NPY Y1 and 38 off-target receptors, including GPCRs, transporters and ion-channels. Particulars: cited from earlier work.

For `N=C(N)NCCC[C@H](NC(=O)CC1(CC(=O)N2CCN(C3c4ccccc4NC(=O)c4ccccc43)CC2)CCCC1)C(=O)NCCn1c(=O)n(-c2ccccc2)n(-c2ccccc2)c1=O` (stereo partly shown) [BIIE0246], in series [1] (BIIE0246), the brain penetration result was “poor brain penetration”. In addition, the antidepressant-like effects entry with mice is “induced antidepressant-like effects”. Moreover, the ethanol consumption result in the series on rats is given as “decreased ethanol consumption”. The IC50 (commonly the concentration that gives 50% inhibition) with NPY Y2 is 3.3 nM.

As for `OC(c1ccccc1)(c1ccccc1)C1CCN(C(=S)Nc2ccccc2)CC1` [Compound 1], the “NPY Y2 antagonist activity (in words)” value on NPY Y2 receptor was “complete loss of activity”.

Take `CCN(CC)c1ccc(NC(=S)N2CCC(C(O)(c3ccccc3)c3ccccc3)CC2)cc1` [Compound 8]: the “fold increase in potency compared to SF-11” value at NPY Y2 receptor is roughly 3 fold.

Turning to `CCN(CC)C(=O)c1ccc(NC(=S)N2CCC(C(O)(c3ccccc3)c3ccccc3)CC2)cc1` [Compound 15], on NPY Y2 receptor (compared with 14), the “fold more potent than N,N-dimethylamide analogue 14” value was 4 fold.

For the compound `CN(C)S(=O)(=O)c1ccc(NC(=S)N2CCC(C(O)(c3ccccc3)c3ccccc3)CC2)cc1` [Compound 16], the “fold increase in potency compared to SF-11” value at NPY Y2 receptor stood at 10 fold.

Take `CCOC(=O)c1cccc(NC(=S)N2CCC(C(O)(c3ccccc3)c3ccccc3)CC2)c1` [Compound 22]: at NPY Y2 receptor, the “NPY Y2 antagonist activity (in words)” value is “partial antagonism”.

For `CCOc1ccc(NC(=S)N2CCC(C(O)(c3ccccc3)c3ccccc3)CC2)c(C)c1` [Compound 27], the “NPY Y2 antagonist activity (in words)” value on NPY Y2 receptor was “complete loss of activity”.

Take `CCOc1ccc(NC(=S)N2CCC(C(O)(c3ccccc3)c3ccccc3)CC2)c(C(F)(F)F)c1` [Compound 28]: at NPY Y2 receptor, the “NPY Y2 antagonist activity (in words)” value was “complete loss of activity”.

Turning to `OC(c1ccccc1)(c1ccccc1)C1CCN(C(=S)Nc2ccc(C(F)(F)F)cc2Cl)CC1` [Compound 29], the “NPY Y2 antagonist activity (in words)” value on NPY Y2 receptor was “complete loss of activity”.

As to `CCOc1ccc(NC(=S)N2CCC(C(O)(c3ccccc3)c3ccccc3)CC2)c(F)c1` [Compound 30], on NPY Y2 receptor (less potent than SF-11), the “fold less potent than SF-11” value was roughly 7 fold.

For `COC(c1ccccc1)(c1ccccc1)C1CCN(C(=S)Nc2ccc(S(=O)(=O)N(C)C)cc2)CC1` [Compound 35], at NPY Y2 receptor, the “NPY Y2 antagonist activity (in words)” value is listed as “no activity”.

Consider `CCOc1ccc(NC(=S)N2CCN(C(c3ccccc3)c3ccccc3)CC2)cc1` [Compound 36], for which the “NPY Y2 antagonist activity (in words)” value on NPY Y2 receptor is reported as “retained the activity”.

`CCOc1ccc(NC(=S)N2CCC(C(O)(c3ccccc3)C3CCCCC3)CC2)cc1` (stereo not shown) [Compound 38]: the “NPY Y2 antagonist activity (in words)” value on NPY Y2 receptor is on record as “complete loss of activity”.

On to `CN(C)S(=O)(=O)c1ccc(NC(=S)N2CCN(C3c4ccccc4CCc4ccccc43)CC2)cc1` [Compound 45], for which the “NPY Y2 antagonist activity (in words)” value at NPY Y2 receptor is “inactive”.

As for `CCN(CC)C(=O)c1ccc(OC(=O)N2CCC(C(O)(c3ccccc3)c3ccccc3)CC2)cc1` [Compound 60], on NPY Y2 receptor (compared with 54), the “fold less potent than N,N-diethyl sulfonamide analogue 54” value came to 18 fold.

As for `CC(=O)Nc1ccc(OC(=O)N2CCC(C(O)(c3ccccc3)c3ccccc3)CC2)cc1` [Compound 61], at NPY Y2 receptor, the “NPY Y2 antagonist activity (in words)” value is recorded as “completely lost the activity”.

Regarding `CCC(=O)Nc1ccc(OC(=O)N2CCC(C(O)(c3ccccc3)c3ccccc3)CC2)cc1` [Compound 62], the “NPY Y2 antagonist activity (in words)” value on NPY Y2 receptor was “completely lost the activity”.

`CS(=O)(=O)Nc1ccc(OC(=O)N2CCC(C(O)(c3ccccc3)c3ccccc3)CC2)cc1` [Compound 63]: the “NPY Y2 antagonist activity (in words)” value on NPY Y2 receptor is recorded as “retained the antagonist activity”.

`CCN(CC)C(=O)c1cccc(OC(=O)N2CCC(C(O)(c3ccccc3)c3ccccc3)CC2)c1` [Compound 64]: the “NPY Y2 antagonist activity (in words)” value at NPY Y2 receptor is on record as “no activity”.

Regarding `CCN(CC)S(=O)(=O)c1cccc(OC(=O)N2CCC(C(O)(c3ccccc3)c3ccccc3)CC2)c1` [Compound 65], the “NPY Y2 antagonist activity (in words)” value at NPY Y2 receptor is “no activity”.

On to `CCOc1ccc(NC(=S)N2CCC(C(O)(c3ccccc3)c3ccccc3)CC2)cc1` [SF-11, N-(4-ethoxyphenyl)-4-[hydroxy(diphenyl)methyl]piperidine-1-carbothioamide], for which the “selectivity against NPY Y1 and 38 off-target receptors” value (“selectivity” for short) in series [2] is “selective”. Also, in series [1] (HTS hit chemotypes), the brain penetration entry is recorded as “brain-penetrant”.

Consider `Cc1ccc(C)c(NS(=O)(=O)c2cc(C(=O)Nc3ccccc3-c3ccccc3)ccc2C)c1` [SF-21], for which the “selectivity” value in series [2] is given as “selective”. The brain penetration entry in series [1] (HTS hit chemotypes) is “brain-penetrant”.

Turning to `COc1cccc(-c2nc(-c3ccc(NC(=O)Cc4ccccc4OC)cc3)no2)c1` [SF-31], the “selectivity” value in series [2] was “selective”. Also, in series [1] (HTS hit chemotypes), the brain penetration result is “brain-penetrant”.

Take `Cc1ccc(S(=O)(=O)C(c2ccccc2)c2c(C)noc2C)cc1` (stereo not shown) [SF-41]: the “selectivity” value in series [2] was “selective”. In addition, in series [1] (HTS hit chemotypes), the brain penetration entry was “brain-penetrant”.
